Our source for the mutagenic call values is PubChem BioAssay AID1259407 (Chemical Carcinogenesis Research Information System (CCRIS), 2018).

The series relates to CCRIS mutagenicity, Ames/micronucleus/aberration tests. Put plainly: CCRIS mutagenicity studies.
Where [1] appears, read: Test System: AMES SALMONELLA TYPHIMURIUM, Strain/Indicator: TA98, Metabolic Activation: NONE, Method: STANDARD PLATE.
Setting [2] is: Test System: AMES SALMONELLA TYPHIMURIUM, Strain/Indicator: TA100, Metabolic Activation: NONE, Method: STANDARD PLATE.

Activity calls are given as the source filed them. No rule for the calls is given here.

For `Nc1c(N=Nc2ccc([N+](=O)[O-])cc2)c(S(=O)(=O)O)cc2c1C(=O)/C(=N\Nc1ccc(-c3ccc(NN=C4C=CC(=O)C=C4)cc3)cc1)C(S(=O)(=O)O)=C2`, the mutagenic call is “active; positive” (Test System: AMES SALMONELLA TYPHIMURIUM, Strain/Indicator: TA98, Metabolic Activation: HAMSTER, LIVER, S-9, Method: PREINCUBATION (PRIVAL METHOD)); “inactive; negative” under setting [1]; “inactive; negative” (Test System: AMES SALMONELLA TYPHIMURIUM, Strain/Indicator: TA98, Metabolic Activation: RAT, LIVER, S-9, PHENOBARBITAL, Method: STANDARD PLATE); “inactive; negative” under setting [2]; “inactive; negative” (Test System: AMES SALMONELLA TYPHIMURIUM, Strain/Indicator: TA100, Metabolic Activation: RAT, LIVER, S-9, PHENOBARBITAL, Method: STANDARD PLATE).
For the molecule `Cc1c(N)cc(N)cc1N`, the mutagenic call is, setting by setting: (Test System: CHINESE HAMSTER CELLS, Strain/Indicator: CHO CELLS(HPRT)/6-THIOGUANINE, Metabolic Activation: NONE, Method: SUSPENSION/PLATE) “active; positive”; (Test System: CHINESE HAMSTER CELLS, Strain/Indicator: CHO CELLS(HPRT)/6-THIOGUANINE, Metabolic Activation: RAT LIVER S-9, AROCLOR 1254, Method: SUSPENSION/PLATE) “inactive; negative”.
Take `O=Nn1cnc(CC(=O)NO)c1`: the mutagenic call (Test System: AMES SALMONELLA TYPHIMURIUM, Strain/Indicator: TA98, Metabolic Activation: NONE, Method: PREINCUBATION) was “active; positive” and the mutagenic call (Test System: AMES SALMONELLA TYPHIMURIUM, Strain/Indicator: TA100, Metabolic Activation: NONE, Method: PREINCUBATION) is “active; positive”.
Consider `CN1CCN(c2ccc3nc(CCc4ccc5nc(-c6ccc(N(CCCl)CCCl)cc6)[nH]c5c4)[nH]c3c2)CC1`, for which the mutagenic call by setting is: under setting [1], “inactive; negative”; under setting [2], “inactive; negative”; (Test System: AMES SALMONELLA TYPHIMURIUM, Strain/Indicator: TA102, Metabolic Activation: NONE, Method: STANDARD PLATE) “active; positive”.
